Columns and labels:
[1] = system: MDR4, MDR10, MDR29 and parental MDCK-C7 cells; conditions: dog, 3 days
Protocol: Cells were plated in 96 well plates (Fisher, Medford, Mass.) at a density of 1000 cells per well. Twenty-four hours after plating, the cells were dosed with 0-10 μM Dox in serum-free media as described above. The cells were incubated for three days and assayed using the CellTiter 96 AQueous One Solution Reagent (Promega Corp., Madison, Wis.) using the manufacturer's instructions. The data were collected and analyzed using the Softmax software. A cytotoxicity assay was also performed with cisplatin (0-30 μM) as described above.

MDCK-C7 cells = assay: Chloride currents in wild-type parental MDCK-C7 cells (control); format: cell-based, canine
Protocol: (§1) The ability of Dox to increase functional expression of ΔF508 CFTR in a similar manner was then assessed. In initial experiments, the effects of Dox on ΔF508 CFTR expression were examined in a canine kidney MDCK-derived cell line that had been stably transfected with a human ΔF508 CFTR cDNA construct expressed under the control of a CMV promoter. As controls, the effects of Dox on CFTR expression in the wild-type parental MDCK-C7 cells from which the stable cell line was derived and an MDCK-derived cell line stably transfected with GFP-tagged wild-type human CFTR also under the control of the CMV promoter were examined. Dox had no effect on chloride currents in either controls.

CFTR [2] = assay: Trans-epithelial chloride currents, Ussing chamber assay, T84 cells; format: cell-based
Protocol: (§2) The correlation between increased levels and increased functional CFTR in the cell membrane was also examined either by measuring chloride permeability using MQAE fluorescence or trans-epithelial chloride currents using the Ussing chamber assay. […] Dox increased total cellular CFTR protein levels by 1.6- to 2-fold in T84 cells, and levels were maximal at approximately 18 to 24 hours after treatment. […] Dox increased the amount of cell surface-detectable CFTR by approximately 2.5- to 3-fold in these cells. Dox treatment of T84 cells was also determined to increase CFTR-associated chloride currents by approximately 2.1-fold as measured by the Using chamber assay and to increase chloride permeability by approximately 2-fold as measured by MQAE fluorescence in these cells.

human ΔF508 CFTR = assay: Chloride currents in MDCK-derived cell line stably transfected with human ΔF508 CFTR cDNA (CMV promoter); format: cell-based; conditions: MDCK cell line expressing human ΔF508 CFTR; statistically significant
Protocol: as §1

[3] = system: GFP-tagged wild-type human CFTR; assay: Chloride currents in MDCK-derived cell line stably transfected with GFP-tagged wild-type human CFTR (control); format: cell-based; conditions: MDCK cells with GFP-tagged wild-type human CFTR
Protocol: as §1

GFP-Pgp = conditions: MDR29 cells
CFTR [4] = assay: Chloride permeability by MQAE fluorescence, T84 cells; format: cell-based
Protocol: as §2

CFTR protein levels = CFTR protein levels by western blotting using anti-CFTR antibodies in T84 cells; format: cell-based
Protocol: as §2

[5] = system: wild-type CFTR mRNA expression; assay: CFTR mRNA expression in HT-29 human colon cell line; format: cell-based; conditions: HT-29 cells
Protocol: Experiments were performed which identified specific agents that increase functional cell surface expression of the ΔF508 CFTR protein. […] However, a rapid increase in CFTR mRNA to 1.5-fold over controls was seen by 48 hours and remained high through the end of the experiment.

Structure (SMILES) | EC50 for cytotoxicity (colony formation), MDR cell lines relative to parental cell line [1] | effect on chloride currents (MDCK-C7 cells) | increase in CFTR-associated chloride currents (CFTR [2]) | increase in chloride currents (human ΔF508 CFTR) | effect on chloride currents [3] | membrane Pgp levels (GFP-Pgp; 24-72 hour period after treatment) | cellular GFP levels (GFP-Pgp; compared with Pgp membrane levels) | increase in chloride permeability (CFTR [4]) | mature CFTR protein levels (CFTR protein levels) | effect on CFTR mRNA expression ([5]; between 0 and 36 hours after treatment) | increase in CFTR mRNA over controls ([5]; by 48 hours, remained high through end of experiment) [fold] | CFTR mRNA expression over a 72 hour period ([5]; single non-toxic treatment, over 72 hours)
COc1cccc2c1C(=O)c1c(O)c3c(c(O)c1C2=O)C[C@@](O)(C(=O)CO)C[C@@H]3O[C@H]1C[C@H](N)[C@H](O)[C@H](C)O1 [Dox, doxorubicin] | 2.5-3.5 fold | no effect | approximately 2.1 fold | approximately 1.7 fold | no effect | progressive and substantial increase | increased earlier and to a greater extent | approximately 2 fold |  |  |  | 
CO[C@@]12[C@H](COC(N)=O)C3=C(C(=O)C(C)=C(N)C3=O)N1C[C@@H]1N[C@@H]12 [MMC, mitomycin C] |  |  | approximately 1.2 fold |  |  |  |  |  | significantly increased | Little or no effect | 1.5 | significant increase

— patent US7585639B1, “Methods for modulating ATP-binding cassette transmembrane reporter protein expression” (Trustees of Dartmouth College, priority 1999, dated 2009)
